Patent US8912120B2, “Herbicidal compositions comprising 4-amino-3-chloro-5-fluoro-6-(4-chloro-2-fluoro-3-methoxyphenyl) pyridine-2-carboxylic acid or a derivative thereof and synthetic auxin herbicides” (Dow AgroSciences, LLC., priority 2012, dated 2014)
Like-named read-outs stand apart in the source and are kept apart here.

Key:
ECHOR = assay: Example II: in-water applied herbicidal mixtures, transplanted paddy rice, ECHOR; assay type: in vivo, Echinochloa oryzoides (early watergrass); settings: for Visual Weed Control (%) - 20 DAA ECHOR Obs / Visual Weed Control (%) - 22 DAA ECHOR Obs: in-water application
Summary of the method: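 Greenhouse in-water application: products pipetted one after another into the aqueous layer over mud-grown transplanted rice, with rice seedlings at the 2nd–3rd leaf stage transplanted 4 days earlier. Controls got the solvent blank only; every pot received matching acetone and crop oil concentrate.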

SCPMA = assay: Example II: in-water applied herbicidal mixtures, transplanted paddy rice, SCPMA; assay type: in vivo
Experimental: (§1) The prepared mud was dispensed in 365 mL aliquots into 16-ounce (oz.) non-perforated plastic pots with a surface area of 86.59 square centimeters (cm^2) leaving a headspace of 3 centimeters (cm) in each pot Mud was allowed to dry overnight prior to planting or transplanting. Rice seeds were planted in Sun Gro MetroMix® 306 planting mixture, which typically has a pH of 6.0 to 6.8 and an organic matter content of about 30 percent, in plastic plug trays. Seedlings at the second or third leaf stage of growth were transplanted into 840 mL of mud contained in 32-oz. non-perforated plastic pots with a surface area of 86.59 cm^2 4 days prior to herbicide application. […] Nutrients were added as Osmocote® (19:6:12, N:P:K^+ minor nutrients) at 2 g per 16-oz. pot and 4 g per 32-oz. pot.
(§2) Applications were made by injecting with a pipetter appropriate amounts of the application solutions, individually and sequentially, into the aqueous layer of the paddy. Control plants were treated in the same manner with the solvent blank. Applications were made so that all treated plant material received the same concentrations of acetone and crop oil concentrate.

DIGSA = assay: Example I: postemergence foliar-applied herbicidal mixtures, direct seeded rice, DIGSA
Experimental: The soil matrix was contained in plastic pots with a volume of 1 quart and a surface area of 83.6 square centimeters (cm^2). […] The plants were grown for 8-22 days in a greenhouse with an approximate 14 h photoperiod which was maintained at about 29° C. during the day and 26° C. during the night. Nutrients (Peters Excel® 15-5-15 5-Ca 2-Mg and iron chelate) were applied in the irrigation solution as needed and water was added on a regular basis. Supplemental lighting was provided with overhead metal halide 1000-Watt lamps as necessary. The plants were employed for testing when they reached the first through fourth true leaf stage.
Treatments consisted of the acid or esters of 4-amino-3-chloro-5-fluoro-6-(4-chloro-2-fluoro-3-methoxy-phenyl)pyridine-2-carboxylic acid (Compound A), each formulated as an SC (suspension concentrate), and various herbicidal components alone and in combination. Forms of compound A were applied on an acid equivalent basis.
For treatments comprised of formulated compounds, measured amounts of compounds were placed individually in 25 mL glass vials and diluted in a volume of 1.25% (v/v) Agri-Dex® crop oil concentrated to obtain 12× stock solutions. […] Application solutions were prepared by adding an appropriate amount of each stock solution (e.g., 1 mL) and diluted to the appropriate final concentrations with the addition of 10 mL of an aqueous mixture of 1.25% (v/v) crop oil concentrate so that the final spray solutions contained 1.25+/−0.05% (v/v) crop oil concentrate.
All stock solutions and applications solutions were visually inspected for compound compatibility prior to application. Spray solutions were applied to the plant material with an overhead Mandel track sprayer equipped with a 8002E nozzles calibrated to deliver 187 L/ha over an application area of 0.503 m^2 at a spray height of 18 to 20 inches (46 to 50 cm) above average plant canopy height. Control plants were sprayed in the same manner with the solvent blank.
The treated plants and control plants were placed in a greenhouse as described above and watered by sub-irrigation to prevent wash-off of the test compounds. After approximately 3 weeks, the condition of the test plants as compared with that of the untreated plants was determined visually and scored on a scale of 0 to 100 percent where 0 corresponds to no injury or growth inhibition and 100 corresponds to complete kill.
Colby's equation was used to determine the herbicidal effects expected from the mixtures (Colby, S. R. 1967. Calculation of the synergistic and antagonistic response of herbicide combinations. Weeds 15:20-22).
The following equation was used to calculate the expected activity of mixtures containing two active ingredients, A and B: Expected=A+B−(A×B/100)
A=observed efficacy of active ingredient A at the same concentration as used in the mixture.
B=observed efficacy of active ingredient B at the same concentration as used in the mixture.

ECHCG = assay: Example I: postemergence foliar-applied herbicidal mixtures, direct seeded rice, ECHCG
CYPRO = assay: Example II: in-water applied herbicidal mixtures, weed control in transplanted paddy rice (greenhouse), CYPRO; assay type: in vivo, Cyperus rotundus (purple nutsedge); settings: for Visual Weed Control (%) - 21 DAA CYPRO Obs / Visual Weed Control (%) - 22 DAA CYPRO Obs: in-water application
Experimental: as §1, §2

COc1c(Cl)ccc(-c2nc(C(=O)OCc3ccccc3)c(Cl)c(N)c2F)c1F [Compound A Benzyl Ester, benzyl ester of 4-amino-3-chloro-5-fluoro-6-(4-chloro-2-fluoro-3-methoxy-phenyl)pyridine-2-carboxylic acid]
Visual Weed Control (%) - 20 DAA ECHOR Obs (ECHOR; 4.38 gae/ha): 10%
Visual Weed Control (%) - 20 DAA ECHOR Obs (ECHOR; 8.75 gae/ha): 20%
Visual Weed Control (%) - 22 DAA ECHOR Obs (ECHOR; 8.75 gae/ha): 25%
Visual Weed Control (%) - 20 DAA ECHOR Obs (ECHOR; 17.5 gae/ha): 50%
Visual Weed Control (%) - 22 DAA ECHOR Obs (ECHOR; 17.5 gae/ha): 45%
pest or weed control at 8 g/ha (ECHOR; Echinochloa oryzoides, 456 h, read-out: Visual Weed Control (%) Obs, 19 DAA, 8 gae/ha): 10%
pest or weed control at 16 g/ha (ECHOR; Echinochloa oryzoides, 456 h, read-out: Visual Weed Control (%) Obs, 19 DAA, 16 gae/ha): 25%
pest or weed control at 32 g/ha (ECHOR; Echinochloa oryzoides, 456 h, read-out: Visual Weed Control (%) Obs, 19 DAA, 32 gae/ha): 35%
pest or weed control at 4.38 g/ha (ECHOR; Echinochloa oryzoides, 480 h, read-out: Visual Weed Control (%) Obs, 20 DAA, 4.38 gae/ha): 25%
pest or weed control at 8.75 g/ha (ECHOR; Echinochloa oryzoides, 480 h, read-out: Visual Weed Control (%) Obs, 20 DAA, 8.75 gae/ha): 20%
pest or weed control at 17.5 g/ha (ECHOR; Echinochloa oryzoides, 480 h, read-out: Visual Weed Control (%) Obs, 20 DAA, 17.5 gae/ha): 30%
pest or weed control at 35 g/ha (ECHOR; Echinochloa oryzoides, 480 h, read-out: Visual Weed Control (%) Obs, 20 DAA, 35 gae/ha): 73%
pest or weed control at 4.38 g/ha (ECHOR; Echinochloa oryzoides, 504 h, read-out: Visual Weed Control (%) Obs, 21 DAA, 4.38 gae/ha): 15%
pest or weed control at 8.75 g/ha (ECHOR; Echinochloa oryzoides, 504 h, read-out: Visual Weed Control (%) Obs, 21 DAA, 8.75 gae/ha): 15%
pest or weed control at 17.5 g/ha (ECHOR; Echinochloa oryzoides, 504 h, read-out: Visual Weed Control (%) Obs, 21 DAA, 17.5 gae/ha): 20%
pest or weed control at 8.75 g/ha (ECHOR; Echinochloa oryzoides, 528 h, read-out: Visual Weed Control (%) Obs, 22 DAA, 8.75 gae/ha): 35%
pest or weed control at 17.5 g/ha (ECHOR; Echinochloa oryzoides, 528 h, read-out: Visual Weed Control (%) Obs, 22 DAA, 17.5 gae/ha): 30%
pest or weed control at 8.75 g/ha (ECHOR; Echinochloa oryzoides, 600 h, read-out: Visual Weed Control (%) Obs, 25 DAA, 8.75 gae/ha): 85%
pest or weed control at 17.5 g/ha (ECHOR; Echinochloa oryzoides, 600 h, read-out: Visual Weed Control (%) Obs, 25 DAA, 17.5 gae/ha): 90%
Visual Weed Control (%) Obs (SCPMA; 20 DAA, 35 gae/ha): 0%
Visual Weed Control (%) Obs (SCPMA; 20 DAA, 70 gae/ha): 0%
Visual Weed Control (%) Obs (SCPMA; 21 DAA, 4.38 gae/ha): 0%
Visual Weed Control (%) Obs (SCPMA; 21 DAA, 8.75 gae/ha): 0%
Visual Weed Control (%) Obs (SCPMA; 21 DAA, 17.5 gae/ha): 0%
Visual Weed Control (%) Obs (SCPMA; 22 DAA, 4.38 gae/ha): 0%
Visual Weed Control (%) Obs (SCPMA; 22 DAA, 8.75 gae/ha): 0%
Visual Weed Control (%) Obs (SCPMA; 22 DAA, 17.5 gae/ha): 0%
Visual Weed Control (%) - 23 DAA DIGSA Obs (DIGSA; 4.38 gae/ha): 0%
Visual Weed Control (%) - 23 DAA DIGSA Obs (DIGSA; 8.75 gae/ha): 0%
Visual Weed Control (%) - 23 DAA DIGSA Obs (DIGSA; 17.5 gae/ha): 15%
Visual Weed Control (%) - 20 DAA DIGSA Obs (DIGSA; 35 gae/ha): 38%
Visual Weed Control (%) - 21 DAA ECHCG Obs (ECHCG; 4.38 gae/ha): 48%
Visual Weed Control (%) - 23 DAA ECHCG Obs (ECHCG; 4.38 gae/ha): 40%
Visual Weed Control (%) - 21 DAA ECHCG Obs (ECHCG; 8.75 gae/ha): 55%
Visual Weed Control (%) - 23 DAA ECHCG Obs (ECHCG; 8.75 gae/ha): 55%
Visual Weed Control (%) - 21 DAA ECHCG Obs (ECHCG; Compound A Benzyl Ester rate printed '—' (second line), Fluroxypyr MHE 0 gae/ha): 85%
Visual Weed Control (%) - 21 DAA ECHCG Obs (ECHCG; Compound A Benzyl Ester rate printed '—', Fluroxypyr MHE 0 gae/ha): 10%
Visual Weed Control (%) - 21 DAA CYPRO Obs (CYPRO; 4.38 gae/ha): 0%
Visual Weed Control (%) - 22 DAA CYPRO Obs (CYPRO; 4.38 gae/ha): 90%
Visual Weed Control (%) - 21 DAA CYPRO Obs (CYPRO; 8.75 gae/ha): 0%
Visual Weed Control (%) - 22 DAA CYPRO Obs (CYPRO; 8.75 gae/ha): 70%
Visual Weed Control (%) Obs (CYPRO; 20 DAA, 4.38 gae/ha): 0%
